Key:
Assay in all cases: relative viability (nuclei count vs DMSO), 5 days (fraction); higher = more cells survive
[1] = test system: 201T
Summary of the method: (§1)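 For relative viability, nuclei counts in treated wells were divided by those in vehicle wells. Lung cancer cell lines had been pin-tool dosed in 1536-well plates the day after seeding and cultured for 5 days, then fixed and stained in one step (final 0.05% Triton X-100, 1% formaldehyde, 1 ug/ml Hoechst) and imaged at 4×. Doses were one drug alone or a fixed anchor-drug dose plus five library-drug doses (not always all listed) in √10 steps, and values are duplicate-plate medians.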

[2] = test system: ABC-1
Summary of the method: as §1

[3] = test system: BEN
Summary of the method: as §1

[4] = test system: CAL-12T
Summary of the method: as §1

[5] = test system: COR-L 105
Summary of the method: as §1

[6] = test system: COR-L23
Summary of the method: as §1

[7] = test system: EKVX
Summary of the method: as §1

[8] = test system: HARA
Summary of the method: as §1

[9] = test system: HCC-366
Summary of the method: as §1

[10] = test system: LK-2
Summary of the method: as §1

[11] = test system: LU99A
Summary of the method: as §1

[12] = test system: NCI-H1437
Summary of the method: as §1

[13] = test system: NCI-H1650
Summary of the method: as §1

[14] = test system: NCI-H1666
Summary of the method: as §1

[15] = test system: NCI-H2009
Summary of the method: as §1

[16] = test system: NCI-H2023
Summary of the method: as §1

[17] = test system: NCI-H2170
Summary of the method: as §1

[18] = test system: NCI-H3122
Summary of the method: as §1

[19] = test system: NCI-H441
Summary of the method: as §1

[20] = test system: NCI-H661
Summary of the method: as §1

[21] = test system: NCI-H727
Summary of the method: as §1

[22] = test system: NCI-H838
Summary of the method: as §1

[23] = test system: PC-14
Summary of the method: as §1

[24] = test system: SW 900
Summary of the method: as §1

CC(C)Oc1cc(Nc2nc(N[C@@H](C)c3ccc(F)cn3)ncc2Cl)n[nH]1 [AZ23] + O=C(c1cc(Cc2n[nH]c(=O)c3ccccc23)ccc1F)N1CCN(C(=O)C2CC2)CC1 [Olaparib] (partner 8 µM)
relative viability ([1]; first compound 0.01 µM): 0.899 | relative viability ([1]; first compound 0.03162 µM): 0.872 | relative viability ([1]; first compound 0.3162 µM): 0.85 | relative viability ([2]; first compound 0.01 µM): 0.971 | relative viability ([2]; first compound 0.03162 µM): 0.781 | relative viability ([2]; first compound 0.3162 µM): 0.673 | relative viability ([3]; first compound 0.01 µM): 1.03 | relative viability ([3]; first compound 0.03162 µM): 1.24 | relative viability ([3]; first compound 0.3162 µM): 1.16 | relative viability ([4]; first compound 0.01 µM): 0.752 | relative viability ([4]; first compound 0.03162 µM): 0.747 | relative viability ([4]; first compound 0.3162 µM): 0.745 | relative viability ([5]; first compound 0.01 µM): 0.609 | relative viability ([5]; first compound 0.03162 µM): 0.819 | relative viability ([5]; first compound 0.3162 µM): 0.665 | relative viability ([6]; first compound 0.01 µM): 0.272 | relative viability ([6]; first compound 0.03162 µM): 0.365 | relative viability ([6]; first compound 0.3162 µM): 0.34 | relative viability ([7]; first compound 0.01 µM): 0.912 | relative viability ([7]; first compound 0.03162 µM): 0.97 | relative viability ([7]; first compound 0.3162 µM): 0.895 | relative viability ([8]; first compound 0.01 µM): 0.292 | relative viability ([8]; first compound 0.03162 µM): 0.575 | relative viability ([8]; first compound 0.3162 µM): 0.969 | relative viability ([9]; first compound 0.01 µM): 0.19 | relative viability ([9]; first compound 0.03162 µM): 0.451 | relative viability ([9]; first compound 0.3162 µM): 0.511 | relative viability ([10]; first compound 0.01 µM): 0.717 | relative viability ([10]; first compound 0.03162 µM): 0.825 | relative viability ([10]; first compound 0.3162 µM): 0.68 | relative viability ([11]; first compound 0.01 µM): 0.233 | relative viability ([11]; first compound 0.03162 µM): 0.237 | relative viability ([11]; first compound 0.3162 µM): 0.328 | relative viability ([12]; first compound 0.01 µM): 0.714 | relative viability ([12]; first compound 0.03162 µM): 0.618 | relative viability ([12]; first compound 0.3162 µM): 0.648 | relative viability ([13]; first compound 0.01 µM): 0.685 | relative viability ([13]; first compound 0.03162 µM): 0.97 | relative viability ([13]; first compound 0.3162 µM): 0.876 | relative viability ([14]; first compound 0.01 µM): 0.718 | relative viability ([14]; first compound 0.03162 µM): 0.699 | relative viability ([14]; first compound 0.3162 µM): 0.759 | relative viability ([15]; first compound 0.01 µM): 0.814 | relative viability ([15]; first compound 0.03162 µM): 0.769 | relative viability ([15]; first compound 0.3162 µM): 0.79 | relative viability ([16]; first compound 0.03162 µM): 0.572 | relative viability ([16]; first compound 0.3162 µM): 0.573 | relative viability ([17]; first compound 0.01 µM): 0.649 | relative viability ([17]; first compound 0.03162 µM): 0.658 | relative viability ([17]; first compound 0.3162 µM): 0.619 | relative viability ([18]; first compound 0.01 µM): 0.627 | relative viability ([18]; first compound 0.03162 µM): 0.715 | relative viability ([18]; first compound 0.3162 µM): 0.684 | relative viability ([19]; first compound 0.01 µM): 0.645 | relative viability ([19]; first compound 0.03162 µM): 0.69 | relative viability ([19]; first compound 0.3162 µM): 0.494 | relative viability ([20]; first compound 0.01 µM): 0.823 | relative viability ([20]; first compound 0.03162 µM): 0.792 | relative viability ([20]; first compound 0.3162 µM): 0.738 | relative viability ([21]; first compound 0.01 µM): 0.751 | relative viability ([21]; first compound 0.03162 µM): 0.678 | relative viability ([21]; first compound 0.3162 µM): 0.689 | relative viability ([22]; first compound 0.01 µM): 0.905 | relative viability ([22]; first compound 0.03162 µM): 0.964 | relative viability ([22]; first compound 0.3162 µM): 0.721 | relative viability ([23]; first compound 0.01 µM): 0.189 | relative viability ([23]; first compound 0.03162 µM): 0.36 | relative viability ([23]; first compound 0.3162 µM): 0.296 | relative viability ([24]; first compound 0.01 µM): 0.804 | relative viability ([24]; first compound 0.3162 µM): 0.869

From the supplement of paper PMC10307832
